Experimental data: patent US5672715A, “Herbicidal substituted 3-aryl-pyrazoles” (Monsanto Company, priority 1995, dated 1997)

What was measured:
Assay type in all cases: in vivo
Soybean [1] = assay: post-emergence herbicide test; conditions: Glycine max, post-emergence, 0.25 lb/A; read-out: % plant inhibition
Procedure, shortened: (§1)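 Plants were raised from seed in topsoil pans in the greenhouse and treated post-emergence at two to three weeks of age. Candidate chemical was applied in spray solution or suspension containing about 0.4% emulsifier at 1870 L/Ha. Activity recorded as percent inhibition.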

Common Chickweed [2] = assay: post-emergence herbicide test; conditions: post-emergence, 0.25 lb/A; read-out: % plant inhibition
Procedure, shortened: as §1

Green Foxtail [3] = assay: post-emergence herbicide test; conditions: Setaria viridis, post-emergence, 0.25 lb/A; read-out: % plant inhibition
Procedure, shortened: as §1

Giant Foxtail [4] = assay: post-emergence herbicide test; conditions: Setaria faberi, post-emergence, 0.25 lb/A; read-out: % plant inhibition
Procedure, shortened: as §1

Birdseye Speedwell [5] = assay: post-emergence herbicide test; conditions: post-emergence, 0.25 lb/A; read-out: % plant inhibition
Procedure, shortened: as §1

Corn [6] = assay: post-emergence herbicide test; conditions: Zea mays, post-emergence, 0.25 lb/A; read-out: % plant inhibition
Procedure, shortened: as §1

Downy Brome [7] = assay: post-emergence herbicide test; conditions: Bromus tectorum, post-emergence, 0.25 lb/A; read-out: % plant inhibition
Procedure, shortened: as §1

Wild Oats [8] = assay: post-emergence herbicide test; conditions: Avena fatua, post-emergence, 0.25 lb/A; read-out: % plant inhibition
Procedure, shortened: as §1

Morning Glory [9] = assay: post-emergence herbicide test; conditions: Ipomoea, post-emergence, 0.25 lb/A; read-out: % plant inhibition
Procedure, shortened: as §1

Cocklebur [10] = assay: post-emergence herbicide test; conditions: Xanthium strumarium, post-emergence, 0.25 lb/A; read-out: % plant inhibition
Procedure, shortened: as §1

Velvetleaf [11] = assay: post-emergence herbicide test; conditions: Abutilon theophrasti, post-emergence, 0.25 lb/A; read-out: % plant inhibition
Procedure, shortened: as §1

Seedling Johnsongrass [12] = assay: post-emergence herbicide test; conditions: Sorghum halepense, post-emergence, 0.25 lb/A; read-out: % plant inhibition
Procedure, shortened: as §1

Blackgrass [13] = assay: post-emergence herbicide test; conditions: Alopecurus myosuroides, post-emergence, 0.25 lb/A; read-out: % plant inhibition
Procedure, shortened: as §1

Rape [14] = assay: post-emergence herbicide test; conditions: post-emergence, 0.25 lb/A; read-out: % plant inhibition
Procedure, shortened: as §1

Wheat [15] = assay: post-emergence herbicide test; conditions: Triticum aestivum, post-emergence, 0.25 lb/A; read-out: % plant inhibition
Procedure, shortened: as §1

Barnyardgrass [16] = assay: post-emergence herbicide test; conditions: Echinochloa crus-galli, post-emergence, 0.25 lb/A; read-out: % plant inhibition
Procedure, shortened: as §1

Bedstraw Catchweed [17] = assay: post-emergence herbicide test; conditions: Galium aparine, post-emergence, 0.25 lb/A; read-out: % plant inhibition
Procedure, shortened: as §1

Soybean [18] = assay: pre-emergence herbicide test; conditions: Glycine max, pre-emergence, 0.25 lb/A; read-out: % plant inhibition
Procedure, shortened: (§2)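 Read-out is percent inhibition at approximately 14 days after seeding and treating. Seeds sat on compacted topsoil beneath a cover layer containing compound in acetone or water, with greenhouse bottom-watering.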

Common Chickweed [19] = assay: pre-emergence herbicide test; conditions: pre-emergence, 0.25 lb/A; read-out: % plant inhibition
Procedure, shortened: as §2

Green Foxtail [20] = assay: pre-emergence herbicide test; conditions: Setaria viridis, pre-emergence; 0.25 lb/A; read-out: % plant inhibition
Procedure, shortened: as §2

Giant Foxtail [21] = assay: pre-emergence herbicide test; conditions: Setaria faberi, pre-emergence, 0.25 lb/A; read-out: % plant inhibition
Procedure, shortened: as §2

Birdseye Speedwell [22] = assay: pre-emergence herbicide test; conditions: pre-emergence, 0.25 lb/A; read-out: % plant inhibition
Procedure, shortened: as §2

Corn [23] = assay: pre-emergence herbicide test; conditions: Zea mays, pre-emergence, 0.25 lb/A; read-out: % plant inhibition
Procedure, shortened: as §2

Downy Brome [24] = assay: pre-emergence herbicide test; conditions: Bromus tectorum, pre-emergence, 0.25 lb/A; read-out: % plant inhibition
Procedure, shortened: as §2

Wild Oats [25] = assay: pre-emergence herbicide test; conditions: Avena fatua, pre-emergence, 0.25 lb/A; read-out: % plant inhibition
Procedure, shortened: as §2

Morning Glory [26] = assay: pre-emergence herbicide test; conditions: Ipomoea, pre-emergence, 0.25 lb/A; read-out: % plant inhibition
Procedure, shortened: as §2

Cocklebur [27] = assay: pre-emergence herbicide test; conditions: Xanthium strumarium, pre-emergence, 0.25 lb/A; read-out: % plant inhibition
Procedure, shortened: as §2

Velvetleaf [28] = assay: pre-emergence herbicide test; conditions: Abutilon theophrasti, pre-emergence, 0.25 lb/A; read-out: % plant inhibition
Procedure, shortened: as §2

Seedling Johnsongrass [29] = assay: pre-emergence herbicide test; conditions: Sorghum halepense, pre-emergence, 0.25 lb/A; read-out: % plant inhibition
Procedure, shortened: as §2

Blackgrass [30] = assay: pre-emergence herbicide test; conditions: Alopecurus myosuroides, pre-emergence, 0.25 lb/A; read-out: % plant inhibition
Procedure, shortened: as §2

Rape [31] = assay: pre-emergence herbicide test; conditions: pre-emergence, 0.25 lb/A; read-out: % plant inhibition
Procedure, shortened: as §2

Wheat [32] = assay: pre-emergence herbicide test; conditions: Triticum aestivum, pre-emergence, 0.25 lb/A; read-out: % plant inhibition
Procedure, shortened: as §2

Barnyardgrass [33] = assay: pre-emergence herbicide test; conditions: Echinochloa crus-galli, pre-emergence, 0.25 lb/A; read-out: % plant inhibition
Procedure, shortened: as §2

Bedstraw Catchweed [34] = assay: pre-emergence herbicide test; conditions: Galium aparine, pre-emergence, 0.25 lb/A; read-out: % plant inhibition
Procedure, shortened: as §2

Compound | inhibition at 280.212 g/ha (Soybean [1]) | inhibition at 280.212 g/ha (Common Chickweed [2]) | inhibition at 280.212 g/ha (Green Foxtail [3]) | inhibition at 280.212 g/ha (Giant Foxtail [4]) | inhibition at 280.212 g/ha (Birdseye Speedwell [5]) | inhibition at 280.212 g/ha (Corn [6]) | inhibition at 280.212 g/ha (Downy Brome [7]) | inhibition at 280.212 g/ha (Wild Oats [8]) | inhibition at 280.212 g/ha (Morning Glory [9]) | inhibition at 280.212 g/ha (Cocklebur [10]) | inhibition at 280.212 g/ha (Velvetleaf [11]) | inhibition at 280.212 g/ha (Seedling Johnsongrass [12]) | inhibition at 280.212 g/ha (Blackgrass [13]) | inhibition at 280.212 g/ha (Rape [14]) | inhibition at 280.212 g/ha (Wheat [15]) | inhibition at 280.212 g/ha (Barnyardgrass [16]) | inhibition at 280.212 g/ha (Bedstraw Catchweed [17]) | inhibition at 280.212 g/ha (Soybean [18]) | inhibition at 280.212 g/ha (Common Chickweed [19]) | inhibition at 280.212 g/ha (Green Foxtail [20]) | other results
Cc1c(-c2cc(C(=O)OCC(=O)c3ccccc3)c(Cl)cc2F)nn(C)c1C(F)(F)F [Compound 43] | 15% | 65% | 20% | 0% | 100% | 7% | 10% | 15% | 75% | 85% | 80% | 25% | 10% | 25% | 10% | 5% | 30% | 0% | 55% | 60% | inhibition at 280.212 g/ha (Giant Foxtail [21]): 15%; inhibition at 280.212 g/ha (Birdseye Speedwell [22]): 60%; inhibition at 280.212 g/ha (Corn [23]): 0%; inhibition at 280.212 g/ha (Downy Brome [24]): 5%; inhibition at 280.212 g/ha (Wild Oats [25]): 5%; inhibition at 280.212 g/ha (Morning Glory [26]): 10%; inhibition at 280.212 g/ha (Cocklebur [27]): 45%; inhibition at 280.212 g/ha (Velvetleaf [28]): 65%; inhibition at 280.212 g/ha (Seedling Johnsongrass [29]): 35%; inhibition at 280.212 g/ha (Blackgrass [30]): 10%; inhibition at 280.212 g/ha (Rape [31]): 5%; inhibition at 280.212 g/ha (Wheat [32]): 0%; inhibition at 280.212 g/ha (Barnyardgrass [33]): 15%; inhibition at 280.212 g/ha (Bedstraw Catchweed [34]): 20%
CCOC(=O)C=C(COC(=O)c1cc(-c2nn(C)c(C(F)(F)F)c2C)c(F)cc1Cl)OC [Compound 44] | 10% | 95% | 90% | 65% | 100% | 15% | 35% | 25% | 80% | 99% | 99% | 60% | 25% | 45% | 15% | 90% | 100% | 0% | 85% | 100% | inhibition at 280.212 g/ha (Giant Foxtail [21]): 50%; inhibition at 280.212 g/ha (Birdseye Speedwell [22]): 85%; inhibition at 280.212 g/ha (Corn [23]): 0%; inhibition at 280.212 g/ha (Downy Brome [24]): 5%; inhibition at 280.212 g/ha (Wild Oats [25]): 5%; inhibition at 280.212 g/ha (Morning Glory [26]): 50%; inhibition at 280.212 g/ha (Cocklebur [27]): 0%; inhibition at 280.212 g/ha (Velvetleaf [28]): 60%; inhibition at 280.212 g/ha (Seedling Johnsongrass [29]): 40%; inhibition at 280.212 g/ha (Blackgrass [30]): 20%; inhibition at 280.212 g/ha (Rape [31]): 20%; inhibition at 280.212 g/ha (Wheat [32]): 0%; inhibition at 280.212 g/ha (Barnyardgrass [33]): 10%; inhibition at 280.212 g/ha (Bedstraw Catchweed [34]): 40%
Cc1c(-c2cc(C(=O)OCC(C)C)c(Cl)cc2F)nn(C)c1C(F)(F)F [Compound 45] | 35% | 100% | 100% | 80% | 100% | 55% | 95% | 80% | 50% | 100% | 100% | 95% | 98% | 50% | 17% | 75% | 100% | 0% | 80% | 100% | inhibition at 280.212 g/ha (Giant Foxtail [21]): 100%; inhibition at 280.212 g/ha (Birdseye Speedwell [22]): 100%; inhibition at 280.212 g/ha (Corn [23]): 0%; inhibition at 280.212 g/ha (Downy Brome [24]): 98%; inhibition at 280.212 g/ha (Wild Oats [25]): 50%; inhibition at 280.212 g/ha (Morning Glory [26]): 30%; inhibition at 280.212 g/ha (Cocklebur [27]): 50%; inhibition at 280.212 g/ha (Velvetleaf [28]): 98%; inhibition at 280.212 g/ha (Seedling Johnsongrass [29]): 98%; inhibition at 280.212 g/ha (Blackgrass [30]): 100%; inhibition at 280.212 g/ha (Rape [31]): 5%; inhibition at 280.212 g/ha (Wheat [32]): 0%; inhibition at 280.212 g/ha (Barnyardgrass [33]): 75%; inhibition at 280.212 g/ha (Bedstraw Catchweed [34]): 98%
CCC(CC)COC(=O)c1cc(-c2nn(C)c(C(F)(F)F)c2C)c(F)cc1Cl [Compound 46] | 15% | 95% | 70% | 0% | 100% | 15% | 15% | 20% | 70% | 85% | 98% | 25% | 20% | 45% | 15% | 50% | 100% | 0% | 90% | 80% | inhibition at 280.212 g/ha (Giant Foxtail [21]): 40%; inhibition at 280.212 g/ha (Birdseye Speedwell [22]): 80%; inhibition at 280.212 g/ha (Corn [23]): 0%; inhibition at 280.212 g/ha (Downy Brome [24]): 15%; inhibition at 280.212 g/ha (Wild Oats [25]): 5%; inhibition at 280.212 g/ha (Morning Glory [26]): 20%; inhibition at 280.212 g/ha (Cocklebur [27]): 10%; inhibition at 280.212 g/ha (Velvetleaf [28]): 80%; inhibition at 280.212 g/ha (Seedling Johnsongrass [29]): 75%; inhibition at 280.212 g/ha (Blackgrass [30]): 10%; inhibition at 280.212 g/ha (Rape [31]): 5%; inhibition at 280.212 g/ha (Wheat [32]): 0%; inhibition at 280.212 g/ha (Barnyardgrass [33]): 0%; inhibition at 280.212 g/ha (Bedstraw Catchweed [34]): 75%
Cc1c(-c2cc(C(=O)OCC3CNCCO3)c(Cl)cc2F)nn(C)c1C(F)(F)F (centres unmarked) [Compound 47] | 30% | 95% | 70% | 5% | 95% | 50% | 20% | 30% | 70% | 100% | 100% | 50% | 20% | 65% | 15% | 5% | 90% | 0% | 70% | 100% | inhibition at 280.212 g/ha (Giant Foxtail [21]): 75%; inhibition at 280.212 g/ha (Birdseye Speedwell [22]): 70%; inhibition at 280.212 g/ha (Corn [23]): 0%; inhibition at 280.212 g/ha (Downy Brome [24]): 20%; inhibition at 280.212 g/ha (Wild Oats [25]): 5%; inhibition at 280.212 g/ha (Morning Glory [26]): 70%; inhibition at 280.212 g/ha (Cocklebur [27]): 0%; inhibition at 280.212 g/ha (Velvetleaf [28]): 50%; inhibition at 280.212 g/ha (Seedling Johnsongrass [29]): 50%; inhibition at 280.212 g/ha (Blackgrass [30]): 25%; inhibition at 280.212 g/ha (Rape [31]): 5%; inhibition at 280.212 g/ha (Wheat [32]): 0%; inhibition at 280.212 g/ha (Barnyardgrass [33]): 75%; inhibition at 280.212 g/ha (Bedstraw Catchweed [34]): 95%
